Our source for the MIC and inhibition values is US8415375B2, “2-hydroxyethyl-1H-quinolin-2-one derivatives and their azaisosteric analogues with antibacterial activity” (Actelion Pharmaceuticals Ltd., priority 2009, dated 2013).

Converted amounts (≈) assume the structure as drawn.

Assay type in all cases: cell-based
One series concerns S. aureus 29213. Nature of the series: Bacterial growth minimal inhibitory concentration (microdilution, cation-adjusted Mueller-Hinton Broth). The note with it: Staphylococcus aureus. As for the experimental part:
Minimal inhibitory concentrations (MICs; mg/l) were determined in cation-adjusted Mueller-Hinton Broth by a microdilution method following the description given in “Methods for Dilution Antimicrobial Susceptibility Tests for Bacteria that Grow Aerobically”, Approved standard, 7th ed., Clinical and Laboratory Standards Institute (CLSI) Document M7-A7, Wayne, Pa., USA, 2006. All Example compounds were tested against several Gram positive and Gram negative bacteria. Typical antibacterial test results are given in Table 1 hereafter (MIC in mg/l).
Background: Broth dilution looks for growth in wells or tubes with falling amounts of substance.

The subject of the next series is S. aureus A798. Kind of series: Bacterial growth minimal inhibitory concentration (microdilution), S. aureus A798. The note with it: Staphylococcus aureus. As for the experimental part: Minimal inhibitory concentrations (MICs; mg/l) were determined in cation-adjusted Mueller-Hinton Broth by a microdilution method following the description given in “Methods for Dilution Antimicrobial Susceptibility Tests for Bacteria that Grow Aerobically”, Approved standard, 7th ed., Clinical and Laboratory Standards Institute (CLSI) Document M7-A7, Wayne, Pa., USA, 2006.
[drawing 16] using the experimentals methods described above for the MIC regarding S. aureus A798 bacteria and for in vitro blocking hERG K^+ channels gave the results summarised in the Table 2 hereafter.

Another series deals with T1, hERG K+ channel (Homo sapiens, UniProt Q12809).
T1 construct: host or cells: CHO-K1 (CHOhERG)
T1 sequence (Q12809 whole entry): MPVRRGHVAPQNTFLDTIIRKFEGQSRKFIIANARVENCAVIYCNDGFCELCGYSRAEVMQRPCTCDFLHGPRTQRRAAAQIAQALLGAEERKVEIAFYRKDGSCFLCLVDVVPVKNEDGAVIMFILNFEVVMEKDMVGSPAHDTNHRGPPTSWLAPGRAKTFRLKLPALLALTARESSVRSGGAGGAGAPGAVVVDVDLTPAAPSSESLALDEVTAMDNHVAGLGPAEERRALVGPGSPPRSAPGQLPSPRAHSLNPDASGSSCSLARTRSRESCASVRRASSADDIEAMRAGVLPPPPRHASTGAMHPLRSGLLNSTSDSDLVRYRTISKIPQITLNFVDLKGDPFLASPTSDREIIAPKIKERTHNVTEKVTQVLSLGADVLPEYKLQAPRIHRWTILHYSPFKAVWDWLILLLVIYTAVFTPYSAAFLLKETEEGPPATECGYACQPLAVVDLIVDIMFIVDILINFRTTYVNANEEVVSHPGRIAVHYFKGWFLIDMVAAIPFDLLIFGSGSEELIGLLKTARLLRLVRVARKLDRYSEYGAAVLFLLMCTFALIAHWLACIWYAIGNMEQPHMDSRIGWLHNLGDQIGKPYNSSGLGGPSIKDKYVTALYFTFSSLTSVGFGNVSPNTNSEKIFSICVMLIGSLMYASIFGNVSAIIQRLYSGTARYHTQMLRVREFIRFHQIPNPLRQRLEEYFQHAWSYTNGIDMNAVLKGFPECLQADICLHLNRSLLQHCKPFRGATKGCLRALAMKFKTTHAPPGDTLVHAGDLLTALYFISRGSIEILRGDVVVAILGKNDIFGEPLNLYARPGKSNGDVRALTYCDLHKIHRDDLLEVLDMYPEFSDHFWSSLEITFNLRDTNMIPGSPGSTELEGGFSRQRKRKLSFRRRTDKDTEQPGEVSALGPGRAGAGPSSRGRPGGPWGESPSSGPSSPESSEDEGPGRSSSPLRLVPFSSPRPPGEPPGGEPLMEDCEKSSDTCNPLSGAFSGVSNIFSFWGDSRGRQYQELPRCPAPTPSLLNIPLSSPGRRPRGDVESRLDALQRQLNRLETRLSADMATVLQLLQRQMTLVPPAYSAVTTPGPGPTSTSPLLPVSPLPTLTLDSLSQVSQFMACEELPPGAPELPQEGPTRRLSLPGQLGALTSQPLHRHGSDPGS
Nature of the series: In vitro blocking of hERG K+ channels (QPatch automated patch-clamp, CHO-K1 cells). As to conditions: pH 7.4, at 10 μM, recombinant hERG in CHO-K1 cells, average block on two cells. The procedure: hERG K^+ channels have been cloned from human heart and recombinant channels are stably expressed in CHO-K1 cells (CHOhERG). These cells have been purchased from bSys GmbH(CH-4052 Basel, Switzerland) and are grown in 150 mL culture flasks at 37° C. in 5% CO2. When the cells are ˜100% confluent, they are detached with 0.25% trypsin-EDTA solution and placed in the cell preparation unit of a QPatch automated patch-clamp robot (Sophion Bioscience A/S, 2750 Ballerup, Denmark).
Currents through the hERG K^+ channels (IKhERG) are elicited using the following buffer solutions and voltage protocol: • extracellular solution (in mM): [NaCl]=150; [KCl]=4; [CaCl2]=1.2; [MgCl2]=1; [HEPES]=10; pH adjusted to 7.4 with NaOH; • intracellular solution (in mM): [KCl]=140; [NaCl]=10; [MgCl2]=1; [HEPES]=10; [EGTA]=5; [Mg-ATP]=5; [Na3-GTP]=0.1; pH adjusted to 7.2 with KOH; • voltage protocol: the resting potential is −80 mV and the frequency of stimulation is 0.1 Hz. hERG K^+ currents are measured as the average current during the last 20 ms of the 500 ms pulse to −40 mV minus the average current during the last 20 ms of the 50 ms pulse to −40 mV.
After the cells have stabilized for a few minutes and the currents are steady, the amplitude of IKhERG is recorded under control conditions. Thereafter, the QPatch robot applies the test compound to the cell at the test concentration and, after 4 minutes of stimulation, the amplitude of IKhERG is recorded under test conditions. The ratio of the two amplitudes is used to define a fractional block and the average block on two cells is used to provide the effect of a given concentration (e.g. 10 μM). If, for a given test compound, a sufficient number of concentrations were tested, an apparent IC50 for inhibition of IKhERG is calculated.
A general note: The hERG channel carries a current that helps repolarise heart muscle cells.

Turning to `COc1ccc2ncc(=O)n(C[C@H](O)[C@@H]3CC[C@@H](NCc4cc5c(cn4)OCCO5)CO3)c2c1` [Example 3, 1-((2S)-2-{(2S,5R)-5-[(2,3-dihydro-[1,4]dioxino[2,3-c]pyridin-7-ylmethyl)-amino]tetrahydro-pyran-2-yl}-2-hydroxy-ethyl)-7-methoxy-1H-quinoxalin-2-one], the values for the MIC against S. aureus 29213 and against S. aureus A798 were at most 0.031 µg/mL and at most 0.063 µg/mL, respectively. For the same compound, the inhibition at 4 min, 10 µM at hERG K+ channel amounted to 18%.
On to `COc1ccc2ccc(=O)n(C[C@H](O)C3CCC(NCc4cc5c(cn4)OCCO5)CC3)c2n1` (stereo partly drawn) [Example 6, 1-((2R)-2-{4-[(2,3-dihydro-[1,4]dioxino[2,3-c]pyridin-7-ylmethyl)-amino]cyclohexyl}-2-hydroxy-ethyl)-7-methoxy-1H-[1,8]naphthyridin-2-one], for which the MIC is at most 0.031 µg/mL in the series with S. aureus 29213 and at most 0.063 µg/mL against S. aureus A798. Also, the inhibition at 4 min, 10 µM at hERG K+ channel was 35%.
The corresponding values for `COc1ccc2ccc(=O)n(C[C@H](O)[C@@H]3CC[C@@H](NCc4cc5c(cn4)OCCO5)CO3)c2n1` [Example 2, 1-((2S)-2-{(2S,5R)-5-[(2,3-dihydro-[1,4]dioxino[2,3-c]pyridin-7-ylmethyl)-amino]-tetrahydro-pyran-2-yl}-2-hydroxy-ethyl)-7-methoxy-1H-[1,8]naphthyridin-2-one] are at most 0.031 µg/mL, at most 0.063 µg/mL and 18%.
Turning to `COc1ccc2ccc(=O)n(C[C@H](O)[C@@H]3CC[C@@H](NCc4cc5c(cn4)OCS5)CO3)c2n1` [Example 9, 1-((2S)-2-hydroxy-2-{(2S,5R)-5-[(3-oxa-1-thia-5-aza-indan-6-ylmethyl)-amino]-tetrahydro-pyran-2-yl}-ethyl)-7-methoxy-1H-[1,8]naphthyridin-2-one], the MIC against S. aureus 29213 was at most 0.031 µg/mL. For the same compound, on hERG K+ channel, the inhibition at 4 min, 10 µM worked out at 52%.
In the series on S. aureus 29213, `COc1cnc2ccc(=O)n(C[C@H](O)[C@@H]3CC[C@@H](NCc4cc5c(cn4)OCCO5)CO3)c2n1` [Example 13, 5-((2S)-2-{(2S,5R)-5-[(2,3-dihydro-[1,4]dioxino[2,3-c]pyridin-7-ylmethyl)-amino]-tetrahydro-pyran-2-yl}-2-hydroxy-ethyl)-3-methoxy-5H-pyrido[2,3-b]pyrazin-6-one] came in with an MIC of 0.125 µg/mL (≈ 0.266 µM). Further, the inhibition at 4 min, 10 µM at hERG K+ channel was 5%.
For `COc1ccc2ccc(=O)n(C[C@H](O)[C@@H]3CC[C@@H](NCc4cc5c(nn4)OCCS5)CO3)c2n1` [Example 8, 1-((2S)-2-{(2S,5R)-5-[(6,7-dihydro-8-oxa-5-thia-1,2-diaza-naphthalen-3-ylmethyl)-amino]-tetrahydro-pyran-2-yl}-2-hydroxy-ethyl)-7-methoxy-1H-[1,8]naphthyridin-2-one], in that order: 0.5 µg/mL (≈ 1.03 µM) and 6%.
Regarding `COc1ccc2cc(F)c(=O)n(C[C@H](O)[C@@H]3CC[C@@H](NCc4cc5c(cn4)OCS5)CO3)c2n1` [Example 10, 3-fluoro-1-((2S)-2-hydroxy-2-{(2S,5R)-5-[(3-oxa-1-thia-5-aza-indan-6-ylmethyl)-amino]-tetrahydro-pyran-2-yl}-ethyl)-7-methoxy-1H-[1,8]naphthyridin-2-one], the MIC against S. aureus 29213 was at most 0.031 µg/mL. Further, the inhibition at 4 min, 10 µM at hERG K+ channel amounted to 48%.
In the series with S. aureus 29213, `COc1ccc2ccc(=O)n(C[C@H](O)[C@@H]3CC[C@@H](NCc4cc5c(cn4)OCCS5)CO3)c2n1` [Example 1, 1-((S)-2-{(2S,5R)-5-[(2,3-dihydro-4-oxa-1-thia-6-aza-naphthalen-7-ylmethyl)-amino]-tetrahydro-pyran-2-yl}-2-hydroxy-ethyl)-7-methoxy-1H-[1,8]naphthyridin-2-one] returned an MIC of at most 0.031 µg/mL. Moreover, on hERG K+ channel, the inhibition at 4 min, 10 µM amounted to 32%.
In the case of `COc1cnc2ccc(=O)n(C[C@H](O)[C@@H]3CC[C@@H](NCc4cc5c(cn4)OCCS5)CO3)c2n1` [Example 14, 5-((2S)-2-{(2S,5R)-5-[(2,3-dihydro-4-oxa-1-thia-6-aza-naphthalen-7-ylmethyl)-amino]-tetrahydro-pyran-2-yl}-2-hydroxy-ethyl)-3-methoxy-5H-pyrido[2,3-b]pyrazin-6-one], in the series on S. aureus 29213, the MIC was at most 0.031 µg/mL.
`COc1cnc2ccc(=O)n(C[C@H](O)[C@@H]3CC[C@@H](NCc4cc5c(nn4)OCCS5)CO3)c2n1` [Example 15, 5-((S)-2-{(2S,5R)-5-[(6,7-dihydro-8-oxa-5-thia-1,2-diaza-naphthalen-3-ylmethyl)-amino]-tetrahydro-pyran-2-yl}-2-hydroxy-ethyl)-3-methoxy-5H-pyrido[2,3-b]pyrazin-6-one] displayed an MIC with S. aureus 29213 of 0.25 µg/mL (≈ 0.514 µM). On hERG K+ channel, the inhibition at 4 min, 10 µM came to 0%.
In the series with S. aureus 29213, `COc1ccc2ncc(=O)n(C[C@H](O)[C@@H]3CC[C@@H](NCc4cc5c(cn4)OCCS5)CO3)c2n1` [Example 11, 4-((2S)-2-{(2S,5R)-5-[(2,3-dihydro-4-oxa-1-thia-6-aza-naphthalen-7-ylmethyl)-amino]-tetrahydro-pyran-2-yl}-2-hydroxy-ethyl)-6-methoxy-4H-pyrido[2,3-b]pyrazin-3-one] gave an MIC of at most 0.031 µg/mL. Moreover, on hERG K+ channel, the inhibition at 4 min, 10 µM is 45%.
As for `COc1ccc2ncc(=O)n(C[C@H](O)[C@@H]3CC[C@@H](NCc4cc5c(nn4)OCCS5)CO3)c2n1` [Example 12, 4-((2S)-2-{(2S,5R)-5-[(6,7-dihydro-8-oxa-5-thia-1,2-diaza-naphthalen-3-ylmethyl)-amino]-tetrahydro-pyran-2-yl}-2-hydroxy-ethyl)-6-methoxy-4H-pyrido[2,3-b]pyrazin-3-one], in the series on S. aureus 29213, the MIC was determined as 0.063 µg/mL (≈ 0.129 µM). In addition, at hERG K+ channel, the inhibition at 4 min, 10 µM stood at 7%.
Turning to `COc1ccc2ncc(=O)n(C[C@H](O)C3CCC(NCc4cc5c(cn4)OCCO5)CC3)c2c1` (stereo partly drawn) [Example 7, 1-((2R)-2-{4-[(2,3-dihydro-[1,4]dioxino[2,3-c]pyridin-7-ylmethyl)-amino]-cyclohexyl}-2-hydroxy-ethyl)-7-methoxy-1H-quinoxalin-2-one], the MIC is at most 0.031 µg/mL against S. aureus 29213 and 0.125 µg/mL (≈ 0.268 µM) in the series on S. aureus A798. Further, the inhibition at 4 min, 10 µM at hERG K+ channel turned out to be 18%.
`COc1ccc2ccc(=O)n(C[C@H](O)[C@@H]3CC[C@@H](NCc4cc5c(nn4)OCCO5)CO3)c2n1` [Example 5, 1-((2S)-2-{(2S,5R)-5-[(6,7-dihydro-[1,4]dioxino[2,3-c]pyridazin-3-ylmethyl)-amino]tetrahydro-pyran-2-yl}-2-hydroxy-ethyl)-7-methoxy-1H-[1,8]naphthyridin-2-one] showed an MIC in the series on S. aureus 29213 of 0.063 µg/mL (≈ 0.134 µM). Moreover, the inhibition at 4 min, 10 µM at hERG K+ channel turned out to be 28%.
Take `COc1ccc2ncc(=O)n(C[C@H](O)[C@@H]3CC[C@@H](NCc4cc5c(cn4)OCCO5)CO3)c2n1` [Example 4, 4-((2S)-2-{(2S,5R)-5-[(2,3-dihydro-[1,4]dioxino[2,3-c]pyridin-7-ylmethyl)-amino]tetrahydro-pyran-2-yl}-2-hydroxy-ethyl)-6-methoxy-4H-pyrido[2,3-b]pyrazin-3-one]: the figures for the MIC against S. aureus 29213 and against S. aureus A798 were at most 0.031 µg/mL and at most 0.063 µg/mL, respectively. Also, the inhibition at 4 min, 10 µM on hERG K+ channel is 7%.

For orientation: MIC means the lowest concentration found to suppress growth. A low value points to a more susceptible organism. What is called inhibition is the change of the read-out against control, counted positive when it falls.
